According to US20250026778A1 (TIUMBIO CO., LTD., priority 2021, published 2025):
Read-outs that look alike come from different tables or passages of the source.

Target: T1, his-galectin-3 (Homo sapiens, UniProt P17931)
T1 construct: purchased Abcam
Experiment: TR-FRET assay (in vitro galectin-3 binding inhibitory activity test)
Details: compound at 20 μM, 60 nM his-galectin-3, 15 nM biotin-ASF
How it was run: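 Compound is premixed with his-galectin-3 (60 nM final), then biotin-ASF (15 nM), Tb anti-His antibody (2 nM) and streptavidin-d2 (20 nM) are added. After at least 3.5 hours at RT in HEPES/NaCl buffer with Tween 20 and BSA, TR-FRET is read at 615/665 nm. DMSO serves as the uninhibited control, ASF omission as background.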

[1] = Table 1, read-out: % Inhibitory activity (at 20 μM)
[2] = read-out: % Inhibitory activity (at 20 μM), Table 1
[3] = Table 3, found values, read-out: % Inhibitory activity (at 20 μM)

T1 sequence (P17931 whole entry): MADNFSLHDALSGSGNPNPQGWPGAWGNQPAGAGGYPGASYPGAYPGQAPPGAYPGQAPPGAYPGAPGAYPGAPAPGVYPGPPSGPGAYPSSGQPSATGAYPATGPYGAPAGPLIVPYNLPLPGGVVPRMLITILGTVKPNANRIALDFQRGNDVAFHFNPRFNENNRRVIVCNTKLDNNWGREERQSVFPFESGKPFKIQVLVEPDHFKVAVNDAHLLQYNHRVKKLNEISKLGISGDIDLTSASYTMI

| SMILES | inhibition at 20 µM [1] | other results |
| --- | --- | --- |
| O=C(O[C@@H]1[C@@H](n2cc(-c3cc(F)c(F)c(F)c3)nn2)[C@@H](O)[C@@H](CO)O[C@@]12CCCO2)c1ncccc1F [Compound A77, (5S,7R,8R,9S,10R)-8-hydroxy-7-(hydroxymethyl)-9-(4-(3,4,5-trifluorophenyl)-1H-1,2,3-triazol-1-yl)-1,6-dioxaspiro[4.5]decan-10-yl 3-fluoropicolinate] | 25 to 50% | – |
| O=C(O[C@@H]1[C@@H](n2cc(-c3cc(F)c(F)c(F)c3)nn2)[C@@H](O)[C@@H](CO)O[C@@]12CCCO2)c1ccc(F)cc1F [Compound A78, (5S,7R,8R,9S,10R)-8-hydroxy-7-(hydroxymethyl)-9-(4-(3,4,5-trifluorophenyl)-1H-1,2,3-triazol-1-yl)-1,6-dioxaspiro[4.5]decan-10-yl 2,4-difluorobenzoate] | < 25% | – |
| O=C(O[C@@H]1[C@@H](n2cc(-c3cc(F)c(F)c(F)c3)nn2)[C@@H](O)[C@@H](CO)O[C@@]12CCCO2)c1ccc(F)cc1 [Compound A79, (5S,7R,8R,9S,10R)-8-hydroxy-7-(hydroxymethyl)-9-(4-(3,4,5-trifluorophenyl)-1H-1,2,3-triazol-1-yl)-1,6-dioxaspiro[4.5]decan-10-yl 4-fluorobenzoate] | < 25% | – |
| O=C(O[C@@H]1[C@@H](n2cc(-c3cc(F)c(F)c(F)c3)nn2)[C@@H](O)[C@@H](CO)O[C@@]12CCCO2)c1ccncc1 [Compound A80, (5S,7R,8R,9S,10R)-8-hydroxy-7-(hydroxymethyl)-9-(4-(3,4,5-trifluorophenyl)-1H-1,2,3-triazol-1-yl)-1,6-dioxaspiro[4.5]decan-10-yl isonicotinate] | 25 to 50% | – |
| C[C@@H](O[C@@H]1[C@@H](n2cc(-c3cc(F)c(F)c(F)c3)nn2)[C@@H](O)[C@@H](CO)O[C@@]12CCCO2)C(=O)O [Compound A82, (R)-2-(((5S,7R,8R,9S,10R)-8-hydroxy-7-(hydroxymethyl)-9-(4-(3,4,5-trifluorophenyl)-1H-1,2,3-triazol-1-yl)-1,6-dioxaspiro[4.5]decan-10-yl)oxy)propanoic acid] | – | inhibition at 20 µM [2]: < 25% |
| C[C@@H](O[C@@H]1[C@@H](n2cc(-c3cc(F)c(F)c(F)c3)nn2)[C@@H](O)[C@@H](CO)O[C@@]12CCCCO2)C(=O)O [Compound A83, (R)-2-(((2R,3R,4S,5R,6S)-3-hydroxy-2-(hydroxymethyl)-4-(4-(3,4,5-trifluorophenyl)-1H-1,2,3-triazol-1-yl)-1,7-dioxaspiro[5.5]undecan-5-yl)oxy)propanoic acid] | – | inhibition at 20 µM [2]: 25 to 50% |
| OC[C@H]1O[C@@]2(CCCO2)[C@H](OCc2cncc(F)c2)[C@@H](n2cc(-c3cc(F)c(F)c(F)c3)nn2)[C@H]1O [Compound A84, (5S,7R,8R,9S,10R)-10-((5-fluoropyridin-3-yl)methoxy)-7-(hydroxymethyl)-9-(4-(3,4,5-trifluorophenyl)-1H-1,2,3-triazol-1-yl)-1,6-dioxaspiro[4.5]decan-8-ol] | – | inhibition at 20 µM [2]: < 25% |
| OC[C@H]1O[C@]2(OCC[C@H]2NCc2cccnc2)[C@H](O)[C@@H](n2cc(-c3cc(F)c(F)c(F)c3)nn2)[C@H]1O [Compound A85] | > 75% | – |
| OC[C@H]1O[C@]2(OCC[C@H]2NCc2cccc(Cl)c2)[C@H](O)[C@@H](n2cc(-c3cc(F)c(F)c(F)c3)nn2)[C@H]1O [Compound A86, (4R,5S,7R,8R,9S,10R)-4-((3-chlorobenzyl)amino)-7-(hydroxymethyl)-9-(4-(3,4,5-trifluorophenyl)-1H-1,2,3-triazol-1-yl)-1,6-dioxaspiro[4.5]decane-8,10-diol] | > 75% | inhibition at 20 µM [3]: 80.3% |
| OC[C@H]1O[C@]2(OCC[C@H]2NCc2ccccc2F)[C@H](O)[C@@H](n2cc(-c3cc(F)c(F)c(F)c3)nn2)[C@H]1O [Compound A87, (4R,5S,7R,8R,9S,10R)-4-((2-fluorobenzyl)amino)-7-(hydroxymethyl)-9-(4-(3,4,5-trifluorophenyl)-1H-1,2,3-triazol-1-yl)-1,6-dioxaspiro[4.5]decane-8,10-diol] | 25 to 50% | – |
| O=C1CCCC2(N1)O[C@H](CO)[C@H](O)[C@H](n1cc(-c3cc(F)c(F)c(F)c3)nn1)[C@H]2O (stereo partly drawn) [Compound A88, (2R,3R,4S,5R)-3,5-dihydroxy-2-(hydroxymethyl)-4-(4-(3,4,5-trifluorophenyl)-1H-1,2,3-triazol-1-yl)-1-oxa-7-azaspiro[5.5]undecan-8-one] | – | inhibition at 20 µM [2]: < 25% |
| OC[C@H]1O[C@@]2(CCCO2)[C@H](OCc2cccc(C(F)(F)F)c2)[C@@H](n2cc(-c3cc(F)c(F)c(F)c3)nn2)[C@H]1O [Compound A90, (5S,7R,8R,9S,10R)-7-(hydroxymethyl)-10-((3-(trifluoromethyl)benzyl)oxy)-9-(4-(3,4,5-trifluorophenyl)-1H-1,2,3-triazol-1-yl)-1,6-dioxaspiro[4.5]decan-8-ol] | < 25% | – |
| OC[C@H]1O[C@@]2(CCCO2)[C@H](OCc2cccc(F)c2)[C@@H](n2cc(-c3cc(F)c(F)c(F)c3)nn2)[C@H]1O [Compound A91, (5S,7R,8R,9S,10R)-10-((3-fluorobenzyl)oxy)-7-(hydroxymethyl)-9-(4-(3,4,5-trifluorophenyl)-1H-1,2,3-triazol-1-yl)-1,6-dioxaspiro[4.5]decan-8-ol] | < 25% | – |
| O=C(O[C@@H]1[C@@H](n2cc(-c3cc(F)c(F)c(F)c3)nn2)[C@@H](O)[C@@H](CO)O[C@@]12CCCO2)c1cc(F)cc(F)c1 [Compound A92, (5S,7R,8R,9S,10R)-8-hydroxy-7-(hydroxymethyl)-9-(4-(3,4,5-trifluorophenyl)-1H-1,2,3-triazol-1-yl)-1,6-dioxaspiro[4.5]decan-10-yl 3,5-difluorobenzoate] | 25 to 50% | – |
| O=C1CCCC2(N1)O[C@H](CO)[C@H](O)[C@H](n1cc(-c3cc(F)c(F)c(F)c3)nn1)[C@H]2OCc1ccccc1 (stereo partly drawn) [Compound A93, (2R,3R,4S,5R)-5-(benzyloxy)-3-hydroxy-2-(hydroxymethyl)-4-(4-(3,4,5-trifluorophenyl)-1H-1,2,3-triazol-1-yl)-1-oxa-7-azaspiro[5.5]undecan-8-one] | < 25% | – |
| O=C1CCCC2(O[C@H](CO)[C@H](O)[C@H](n3cc(-c4cc(F)c(F)c(F)c4)nn3)[C@H]2O)N1CC(F)F (stereo partly drawn) [Compound A94, (2R,3R,4S,5R)-7-(2,2-difluoroethyl)-3.5-dihydroxy-2-(hydroxymethyl)-4-(4-(3,4,5-trifluorophenyl)-1H-1,2,3-triazol-1-yl)-1-oxa-7-azaspiro[5.5]undecan-8-one] | – | % Inhibitory activity (at 20 μM) (Table 1): D (inhibition rate was less than 25%) |
| O=C1CCCC2(O[C@H](CO)[C@H](O)[C@H](n3cc(-c4cc(F)c(F)c(F)c4)nn3)[C@H]2O)N1CC1CCS(=O)(=O)CC1 (stereo partly drawn) [Compound A95, (2R,3R,4S,5R)-7-((1,1-dioxidotetrahydro-2H-thiopyran-4-yl)methyl)-3,5-dihydroxy-2-(hydroxymethyl)-4-(4-(3,4,5-trifluorophenyl)-1H-1,2,3-triazol-1-yl)-1-oxa-7-azaspiro[5.5]undecan-8-one] | < 25% | – |
| OC[C@H]1O[C@]2(OCC[C@H]2NCc2cccc(C(F)(F)F)c2)[C@H](O)[C@@H](n2cc(-c3cc(F)c(F)c(F)c3)nn2)[C@H]1O [Compound A96, (4R,5S,7R,8R,9S,10R)-7-(hydroxymethyl)-4-((3-(trifluoromethyl)benzyl)amino)-9-(4-(3,4,5-trifluorophenyl)-1H-1,2,3-triazol-1-yl)-1,6-dioxaspiro[4.5]decane-8,10-diol] | < 25% | – |
| OC[C@H]1O[C@]2(OCC[C@H]2NCc2ccc(Cl)cc2)[C@H](O)[C@@H](n2cc(-c3cc(F)c(F)c(F)c3)nn2)[C@H]1O [Compound A97, (4R,5S,7R,8R,9S,10R)-4-((4-chlorobenzyl)amino)-7-(hydroxymethyl)-9-(4-(3,4,5-trifluorophenyl)-1H-1,2,3-triazol-1-yl)-1,6-dioxaspiro[4.5]decane-8,10-diol] | < 25% | – |
| OC[C@H]1O[C@]2(OCC[C@H]2NCc2ccccn2)[C@H](O)[C@@H](n2cc(-c3cc(F)c(F)c(F)c3)nn2)[C@H]1O [Compound A98, (4R,5S,7R,8R,9S,10R)-7-(hydroxymethyl)-4-((pyridin-2-ylmethyl)amino)-9-(4-(3,4,5-trifluorophenyl)-1H-1,2,3-triazol-1-yl)-1,6-dioxaspiro[4.5]decane-8,10-diol] | < 25% | – |
| OC[C@H]1O[C@]2(CCCO2)[C@H](O)[C@@H](n2cc(-c3cc(F)c(F)c(F)c3)nn2)[C@H]1O [Compound A100, (5R,7R,8R,9S,10R)-7-(hydroxymethyl)-9-(4-(3,4,5-trifluorophenyl)-1H-1,2,3-triazol-1-yl)-1,6-dioxaspiro[4.5]decane-8,10-diol] | 25 to 50% | inhibition at 20 µM [3]: 48.1% |
| OC[C@H]1OC2(CCCC2)[C@H](O)[C@@H](n2cc(-c3cc(F)c(F)c(F)c3)nn2)[C@H]1O [Compound A101, (7R,8R,9S,10R)-7-(hydroxymethyl)-9-(4-(3,4,5-trifluorophenyl)-1H-1,2,3-triazol-1-yl)-6-oxaspiro[4.5]decane-8,10-diol] | 25 to 50% | – |
| OC[C@H]1O[C@]2(OCC[C@H]2NCc2cccc(Br)c2)[C@H](O)[C@@H](n2cc(-c3cc(F)c(F)c(F)c3)nn2)[C@H]1O [Compound A102, (4R,5S,7R,8R,9S,10R)-4-((3-bromobenzyl)amino)-7-(hydroxymethyl)-9-(4-(3,4,5-trifluorophenyl)-1H-1,2,3-triazol-1-yl)-1,6-dioxaspiro[4.5]decane-8,10-diol] | 25 to 50% | – |
